We go through 3 compounds from patent US20200061155A1, “COMPOSITIONS AND METHODS FOR TREATING LYNX2 DISORDERS” (OPHIDION, INC, priority 2017, published 2020).

Assay [1] deals with brain slices from lynx2 knockout (KO) mice. The assay is described as follows: long term depression (LTD) of evoked fEPSPs in brain slices after theta pulse stimulation. It counts as cell-based, mouse. The following applies: ACSF with 20 mM methyllycaconitine; lynx2KO slices; theta pulse stimulation (FIG. 4D). The procedure: FIG. 4D is a graph of stimulating electrode traces from long term depression (LTD) experiments using extracellular recordings for evoked field excitatory post-synaptic potentials (fEPSPs) in […] (EC) brain slices in ACSF solution with […] methyllycaconitine (MLA) from lynx2 knockout (KO) mice before (left of zero minutes) and after (right of zero minutes) theta pulse stimulations (TSP), according to embodiments of the present invention.
Field excitatory postsynaptic potentials (fEPSPs) were evoked by 0.05 Hz test stimulus though a bipolar stimulating electrode placed on external Capsule (EC), and a glass pipette as recording electrode was filled with ACSF and placed in BLA. […] Access resistances were continuously monitored and neurons with more than 20% change of series resistance were excluded from data analysis.
The plasticity ratio was calculated from the average EPSP amplitude of the last 10 mins of baseline recording and the last 15 mins after high frequency or low stimulus, for LTP and LTD studies, respectively. […] For all experiments, treatment effects were analyzed with one-way ANOVA, followed by the appropriate post hoc tests. […]

Assay [2] concerns lynx2KO mice. The assay is described as follows: light dark box experiment (latency to enter dark enclosed environment). The settings on record: lynx2KO mice under chronic stress with mec vs lynx2KO mice without mec (FIG. 2A). It counts as in vivo, mouse. The source says: FIG. 2A is a graph of the time in seconds (latency) for wild type (WT) (black bars) or lynx2 knock out (KO) (white bars) mice to enter a dark enclosed environment under conditions of saline, chronic stress, or chronic stress with administration of mecamylamine (mec) as indicated, according to embodiments of the present invention.

For assay [3], the system named is lynx2KO mice. Briefly: fear extinction experiment (noise previously paired with electric shock). It counts as in vivo, mouse. The settings on record: lynx2KO mice with mec vs lynx2KO mice without mec (FIGS. 2B-2C). On the procedure: FIG. 2B is a graph of fear observed in wild type (black circles) and lynx2KO mice (white triangles) after fear training (an electric shock depicted in yellow) associated with a noise for 24 hours followed by the same noise without the shock to measure the mouse's capability to lose the fear, according to embodiments of the present invention.
FIG. 2C is a graph of fear observed in lynx2KO mice during the fear extinction experiment of FIG. 2B with a group of lynx2KO mice receiving mecamylamine (mec), according to embodiments of the present invention.

In assay [4] the test system is basolateral amygdalar neurons of lynx2KO mice. The assay is described as follows: spike timing dependent plasticity (post-pre stimulation), EPSC amplitude, perforated patch-clamp. It counts as cell-based, mouse. The following applies: 10 μM DHPG for 15 min; lynx2KO neurons (FIG. 8E).
Description: Spike timing (i.e., Δt in ms) was determined between the onset of the EPSP and the peak of the AP. […] Post-pre stimulation was given tp determine the level of LTD. x-axis is time in minutes, y axis is EPSC amplitude, normalized and presented as a percentage (baseline set to 100). Baseline is EPSC amplitude before post-pre stimulation.
For activation of mGluR receptor with DHPG (FIG. 8E) in a spike-timing dependent paradigm (post-pre stimulation) to elicit LTD. For exploration of the mechanism of anti-Hebbian LTP, mGluR5 agonist DHPG (10 μM, Tocris Bioscience, Bristol, UK) was administered for 15 min when the baseline recorded at least 10 min. […] Baseline is EPSC amplitude before post-pre stimulation.
Pairings were repeated 100 times. Pre-post (spike timings as positive) was set as a 1 EPSP/1 AP pairing (100 repeats at 1 Hz) or post-pre (spike timing as negative) with either 1 AP/1 EPSP pairing (100 repeats at 1 Hz). Spike timing (i.e., Δt in ms) was determined between the onset of the EPSP and the peak of the AP.

Consider `CCN1C[C@]2(COC(=O)c3ccccc3N3C(=O)C[C@H](C)C3=O)CC[C@H](OC)[C@@]34[C@@H]5C[C@H]6[C@H](OC)[C@@H]5[C@](O)(C[C@@H]6OC)[C@@](O)([C@@H](OC)[C@H]23)[C@@H]14` [methyllycaconitine], for which, in assay [1], the “induced long term depression (LTD) of fEPSPs” value is “able to rescue induced long term depression (LTD)”.

For the compound `CNC1(C)C2CCC(C2)C1(C)C` (stereo not shown) [mecamylamine], in assay [2], the latency to dark entry is given as “increased latency to dark”. Further, the “ability to unlearn a fear associated with a noise (fear extinction)” value in assay [3] is “increased ability to unlearn a fear associated with a noise”.

Take `NC(C(=O)O)c1cc(O)cc(O)c1` (stereo not shown) [DHPG, 3,5-dihydroxyphenylglycine]: the “synaptic plasticity (EPSC amplitude after post-pre stimulation)” value in assay [4] is recorded as “restores the abnormal synaptic plasticity in the lynx2KO neurons to normal levels”.
